Measured values reported in paper PMC6269873, “Substituted 3-Benzylcoumarins as Allosteric MEK1 Inhibitors: Design, Synthesis and Biological Evaluation as Antiviral Agents” (Molecules, 2013).
Where two headings read alike, the source gives them in different places.

How the values were obtained:
phosphorylated MEK1 = phosphorylated MEK1 (Homo sapiens, UniProt Q02750); assay: MEK1 binding assay (HTRF, tracer displacement); conditions: for inhibition at 2 µM: read-out: % binding (2 µM); for inhibition at 20 µM: read-out: % binding (20 µM)
Chain of phosphorylated MEK1 (Q02750 whole entry): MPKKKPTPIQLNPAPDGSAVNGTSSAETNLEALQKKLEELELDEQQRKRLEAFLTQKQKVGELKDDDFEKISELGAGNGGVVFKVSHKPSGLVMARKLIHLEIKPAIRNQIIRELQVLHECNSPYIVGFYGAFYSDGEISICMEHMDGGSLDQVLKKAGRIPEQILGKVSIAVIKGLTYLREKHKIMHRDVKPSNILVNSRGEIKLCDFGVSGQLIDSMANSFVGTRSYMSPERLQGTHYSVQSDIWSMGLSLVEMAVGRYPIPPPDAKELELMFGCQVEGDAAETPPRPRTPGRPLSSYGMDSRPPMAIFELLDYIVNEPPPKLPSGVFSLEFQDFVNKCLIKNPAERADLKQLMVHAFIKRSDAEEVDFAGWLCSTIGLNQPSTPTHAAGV
Procedure: The homogeneous time resolved fluorescence (HTRF) assay was performed on a Proxiplate-384 F plus solid back plate (Perkin Elmer, Waltham, MA. USA) with 5 nM GST tagged phosphorylated MEK1 (GST-MEK1), 2 nM europium-labeled anti-GST antibody (Eu-anti-GST), 20 nM kinase tracer 236 and test compound at a variety of concentrations. In the reaction mixture, GST-MEK1 forms a complex with the Eu-anti-GST and the tracer. Excitation of europium (the donor) using a 340-nm excitation filter results in energy transfer to the fluorophore of the tracer. This energy transfer is detected by an increase in the fluorescence emission of the tracer at 665 nm and a decrease in the fluorescence emission of europium at 615 nm. The FRET ratio was calculated by dividing the emission signal at 665 nm by the emission signal at 615 nm. A competitor compound such as a MEK inhibitor replaces the tracer from the complex and decreases the FRET ratio accordingly. The plate was incubated in dark at room temperature for 30 min before measuring the fluorescent emission of each well at 665 and 615 nm using a 340-nm excitation filter, 100-µs delay time, and 200-µs integration time, on a PHERAStar plate reader (BMG Labtech, Durham, NC, USA). […] Data shown as %Inhibition normalized to AZD6244 at 100 µM.

Structure (SMILES): Cn1cnc2c(F)c(Nc3ccc(Br)cc3Cl)c(C(=O)NOCCO)cc21 [AZD6244, reference compound]
- inhibition at 100 µM (phosphorylated MEK1): 100%

Structure (SMILES): Cc1c(Cc2ccccc2)c(=O)oc2cc(O)ccc12 [Compound 4b, 3-Benzyl-7-hydroxy-4-methyl-2H-chromen-2-one]
- inhibition at 2 µM (phosphorylated MEK1): -0.81%
- inhibition at 20 µM (phosphorylated MEK1): -6.03%

Structure (SMILES): Cc1c(Cc2ccccc2)c(=O)oc2cc(O)c(Cl)cc12 [Compound 4c, 3-Benzyl-6-chloro-7-hydroxy-4-methyl-2H-chromen-2-one]
- inhibition at 2 µM (phosphorylated MEK1): 15.8%
- inhibition at 20 µM (phosphorylated MEK1): 5.1%

Structure (SMILES): CCc1c(Cc2ccccc2)c(=O)oc2cc(O)ccc12 [Compound 4d, 3-Benzyl-4-ethyl-7-hydroxy-2H-chromen-2-one]
- melting point: 140 to 141 °C
- inhibition at 2 µM (phosphorylated MEK1): 27%
- inhibition at 20 µM (phosphorylated MEK1): 10.4%

Structure (SMILES): CCCc1c(Cc2ccccc2)c(=O)oc2cc(O)ccc12 [Compound 4e, 3-Benzyl-7-hydroxy-4-propyl-2H-chromen-2-one]
- melting point: 139 to 140 °C
- inhibition at 2 µM (phosphorylated MEK1): 29.1%
- inhibition at 20 µM (phosphorylated MEK1): 7.06%

Structure (SMILES): CCc1c(Cc2ccc(F)cc2)c(=O)oc2cc(O)ccc12 [Compound 4g, 4-Ethyl-3-(4-fluorobenzyl)-7-hydroxy-2H-chromen-2-one]
- melting point: 131 to 132 °C
- inhibition at 2 µM (phosphorylated MEK1): 10.9%
- inhibition at 20 µM (phosphorylated MEK1): 19.6%

Structure (SMILES): CCCc1c(Cc2ccc(F)cc2)c(=O)oc2cc(O)ccc12 [Compound 4h, 3-(4-Fluorobenzyl)-7-hydroxy-4-propyl-2H-chromen-2-one]
- melting point: 130 to 131 °C
- inhibition at 2 µM (phosphorylated MEK1): 20.9%
- inhibition at 20 µM (phosphorylated MEK1): 20.4%

Structure (SMILES): O=c1cc(CCl)c2ccc(O)cc2o1 [Compound 4i, 4-(Chloromethyl)-7-hydroxy-2H-chromen-2-one]
- melting point: 166 to 167 °C
- inhibition at 2 µM (phosphorylated MEK1): 33.3%
- inhibition at 20 µM (phosphorylated MEK1): 22.4%

Structure (SMILES): O=c1cc(CO)c2ccc(O)cc2o1 [Compound 4j, 7-Hydroxy-4-(hydroxymethyl)-2H-chromen-2-one]
- melting point: 148 to 149 °C
- inhibition at 2 µM (phosphorylated MEK1): 36.3%
- inhibition at 20 µM (phosphorylated MEK1): 33.6%

Structure (SMILES): CN(C)C(=O)Oc1ccc2cc(Cc3ccccc3)c(=O)oc2c1 [Compound 12, 3-benzyl-7-N,N-dimethylcarbamoyloxyl-2H-chromen-2-one]
- binding affinity (in words) (phosphorylated MEK1): disappearance of affinity
- inhibition at 2 µM (phosphorylated MEK1): 31.6%
- inhibition at 20 µM (phosphorylated MEK1): 25.6%

Structure (SMILES): CCc1c(Cc2ccccc2)c(=O)oc2cc(OC(=O)N(C)C)ccc12 [Compound 15, 3-Benzyl-4-ethyl-2-oxo-2H-chromen-7-yl dimethylcarbamate]
- melting point: 85 to 86 °C
- IC50 (phosphorylated MEK1): 163 nM
- inhibition at 2 µM (phosphorylated MEK1): 85%
- inhibition at 20 µM (phosphorylated MEK1): 92.8%

Structure (SMILES): CCCc1c(Cc2ccccc2)c(=O)oc2cc(OC(=O)N(C)C)ccc12 [Compound 16, 3-Benzyl-2-oxo-4-propyl-2H-chromen-7-yl dimethylcarbamate]
- melting point: 117 to 118 °C
- IC50 (phosphorylated MEK1): 1040 nM
- inhibition at 2 µM (phosphorylated MEK1): 70.9%
- inhibition at 20 µM (phosphorylated MEK1): 95.4%

Structure (SMILES): CCN(CC)C(=O)Oc1ccc2c(C)c(Cc3ccccc3)c(=O)oc2c1 [Compound 20, 3-Benzyl-4-methyl-2-oxo-2H-chromen-7-yl diethylcarbamate]
- melting point: 109 °C
- inhibition at 2 µM (phosphorylated MEK1): 15.5%
- inhibition at 20 µM (phosphorylated MEK1): 20%

Structure (SMILES): CCN(CC)C(=O)Oc1cc2oc(=O)c(Cc3ccccc3)c(C)c2cc1Cl [Compound 21, 3-Benzyl-6-chloro-4-methyl-2-oxo-2H-chromen-7-yl diethylcarbamate]
- melting point: 83 to 84 °C
- inhibition at 2 µM (phosphorylated MEK1): 27%
- inhibition at 20 µM (phosphorylated MEK1): 48.1%

Structure (SMILES): CCc1c(Cc2ccccc2)c(=O)oc2cc(OC(=O)N(CC)CC)ccc12 [Compound 22, 3-Benzyl-4-ethyl-2-oxo-2H-chromen-7-yl diethylcarbamate]
- melting point: 64 to 65 °C
- inhibition at 2 µM (phosphorylated MEK1): 6.63%
- inhibition at 20 µM (phosphorylated MEK1): 48.1%

Structure (SMILES): CCCc1c(Cc2ccccc2)c(=O)oc2cc(OC(=O)N(CC)CC)ccc12 [Compound 23, 3-Benzyl-2-oxo-4-propyl-2H-chromen-7-yl diethylcarbamate]
- melting point: 112 to 113 °C
- inhibition at 2 µM (phosphorylated MEK1): 43.1%
- inhibition at 20 µM (phosphorylated MEK1): 46.1%

Structure (SMILES): CCN(CC)C(=O)Oc1ccc2c(C)c(Cc3ccc(F)cc3)c(=O)oc2c1 [Compound 24, 3-(4-Fluorobenzyl)-4-methyl-2-oxo-2H-chromen-7-yl diethylcarbamate]
- melting point: 101 to 102 °C
- inhibition at 2 µM (phosphorylated MEK1): 22.3%
- inhibition at 20 µM (phosphorylated MEK1): 27.8%

Structure (SMILES): CCc1c(Cc2ccc(F)cc2)c(=O)oc2cc(OC(=O)N(CC)CC)ccc12 [Compound 25, 4-Ethyl-3-(4-fluorobenzyl)-2-oxo-2H-chromen-7-yl diethylcarbamate]
- melting point: 74 to 75 °C
- binding affinity (in words) (phosphorylated MEK1): active
- inhibition at 2 µM (phosphorylated MEK1): 25.9%
- inhibition at 20 µM (phosphorylated MEK1): 59.2%

Structure (SMILES): CCCc1c(Cc2ccc(F)cc2)c(=O)oc2cc(OC(=O)N(CC)CC)ccc12 [Compound 26, 3-(4-Fluorobenzyl)-2-oxo-4-propyl-2H-chromen-7-yl diethylcarbamate]
- melting point: 51 to 52 °C
- inhibition at 2 µM (phosphorylated MEK1): 35.2%
- inhibition at 20 µM (phosphorylated MEK1): 37.5%

Structure (SMILES): CC(=O)Oc1cc2oc(=O)c(Cc3ccccc3)c(C)c2cc1Cl [Compound 27, 3-Benzyl-6-chloro-4-methyl-2-oxo-2H-chromen-7-yl acetate]
- melting point: 190 °C
- inhibition at 2 µM (phosphorylated MEK1): 30.6%
- inhibition at 20 µM (phosphorylated MEK1): 30.8%

Structure (SMILES): CCCc1c(Cc2ccccc2)c(=O)oc2cc(OC(C)=O)ccc12 [Compound 30, 3-Benzyl-2-oxo-4-propyl-2H-chromen-7-yl acetate]
- melting point: 139 to 140 °C
- inhibition at 2 µM (phosphorylated MEK1): 15.5%
- inhibition at 20 µM (phosphorylated MEK1): 25.6%

Structure (SMILES): CCc1c(Cc2ccc(F)cc2)c(=O)oc2cc(OC(C)=O)ccc12 [Compound 32, 4-Ethyl-3-(4-fluorobenzyl)-2-oxo-2H-chromen-7-yl acetate]
- melting point: 122 to 123 °C
- binding affinity (in words) (phosphorylated MEK1): active
- IC50 (phosphorylated MEK1; HTRF binding to GST tagged phosphorylated MEK1, read-out: IC50): 91.2 nM
- inhibition at 2 µM (phosphorylated MEK1): 94.6%
- inhibition at 20 µM (phosphorylated MEK1): 101%

Structure (SMILES): Cc1c(Cc2ccccc2)c(=O)oc2cc(OS(=O)(=O)c3ccccc3)ccc12 [Compound 69, 3-Benzyl-4-methyl-2-oxo-2H-chromen-7-yl benzenesulfonate]
- inhibition at 2 µM (phosphorylated MEK1): -11.3%
- inhibition at 20 µM (phosphorylated MEK1): 2.32%

Structure (SMILES): Cc1c(Cc2ccccc2)c(=O)oc2cc(OS(=O)(=O)c3ccccc3)c(Cl)cc12 [Compound 70, 3-Benzyl-6-chloro-4-methyl-2-oxo-2H-chromen-7-yl benzenesulfonate]
- inhibition at 2 µM (phosphorylated MEK1): 29.9%
- inhibition at 20 µM (phosphorylated MEK1): 24.5%

Structure (SMILES): CCc1c(Cc2ccccc2)c(=O)oc2cc(OS(=O)(=O)c3ccccc3)ccc12 [Compound 71, 3-Benzyl-4-ethyl-2-oxo-2H-chromen-7-yl benzenesulfonate]
- inhibition at 2 µM (phosphorylated MEK1): 31.1%
- inhibition at 20 µM (phosphorylated MEK1): -2.35%

Structure (SMILES): CCCc1c(Cc2ccccc2)c(=O)oc2cc(OS(=O)(=O)c3ccccc3)ccc12 [Compound 72, 3-Benzyl-2-oxo-4-propyl-2H-chromen-7-yl benzenesulfonate]
- inhibition at 2 µM (phosphorylated MEK1): 26%
- inhibition at 20 µM (phosphorylated MEK1): 14%

Structure (SMILES): CCc1c(Cc2ccc(F)cc2)c(=O)oc2cc(OS(=O)(=O)c3ccccc3)ccc12 [Compound 73, 4-Ethyl-3-(4-fluorobenzyl)-2-oxo-2H-chromen-7-yl benzenesulfonate]
- binding affinity (in words) (phosphorylated MEK1): inactive
- inhibition at 2 µM (phosphorylated MEK1): 16.6%
- inhibition at 20 µM (phosphorylated MEK1): 7.4%

Structure (SMILES): Cc1c(Cc2ccc(F)cc2)c(=O)oc2cc(OS(=O)(=O)c3ccccc3)ccc12 [Compound 74, 3-(4-Fluorobenzyl)-4-methyl-2-oxo-2H-chromen-7-yl benzenesulfonate]
- inhibition at 2 µM (phosphorylated MEK1): 21.4%
- inhibition at 20 µM (phosphorylated MEK1): 17%

Structure (SMILES): CCCc1c(Cc2ccc(F)cc2)c(=O)oc2cc(OS(=O)(=O)c3ccccc3)ccc12 [Compound 75, 3-(4-Fluorobenzyl)-2-oxo-4-propyl-2H-chromen-7-yl benzenesulfonate]
- inhibition at 2 µM (phosphorylated MEK1): 21.6%
- inhibition at 20 µM (phosphorylated MEK1): 13.8%

Structure (SMILES): CCc1c(Cc2ccccc2)c(=O)oc2cc(OS(=O)(=O)c3ccc(C)cc3)ccc12 [Compound 78, 3-Benzyl-4-ethyl-2-oxo-2H-chromen-7-yl 4-methylbenzenesulfonate]
- inhibition at 2 µM (phosphorylated MEK1): 33.2%
- inhibition at 20 µM (phosphorylated MEK1): 4.76%

Structure (SMILES): CCCc1c(Cc2ccccc2)c(=O)oc2cc(OS(=O)(=O)c3ccc(C)cc3)ccc12 [Compound 79, 3-Benzyl-2-oxo-4-propyl-2H-chromen-7-yl 4-methylbenzenesulfonate]
- inhibition at 2 µM (phosphorylated MEK1): 24.6%
- inhibition at 20 µM (phosphorylated MEK1): 11.7%

Structure (SMILES): CCc1c(Cc2ccc(F)cc2)c(=O)oc2cc(OS(=O)(=O)c3ccc(C)cc3)ccc12 [Compound 80, 4-Ethyl-3-(4-fluorobenzyl)-2-oxo-2H-chromen-7-yl 4-methylbenzenesulfonate]
- binding affinity (in words) (phosphorylated MEK1): inactive
- inhibition at 2 µM (phosphorylated MEK1): 33.1%
- inhibition at 20 µM (phosphorylated MEK1): 16.5%

Structure (SMILES): CCCc1c(Cc2ccc(F)cc2)c(=O)oc2cc(OS(=O)(=O)c3ccc(C)cc3)ccc12 [Compound 82, 3-(4-Fluorobenzyl)-2-oxo-4-propyl-2H-chromen-7-yl 4-methylbenzenesulfonate]
- inhibition at 2 µM (phosphorylated MEK1): 37.5%
- inhibition at 20 µM (phosphorylated MEK1): 45.9%

Structure (SMILES): O=C(c1ccccc1)c1cc2ccc(O)cc2oc1=O [Compound 85, 3-Benzoyl-7-hydroxycoumarin]
- inhibition at 2 µM (phosphorylated MEK1): 23%
- inhibition at 20 µM (phosphorylated MEK1): 20.5%

Structure (SMILES): N#Cc1c(C(=O)c2ccccc2)c(=O)oc2cc(O)ccc12 [Compound 87, 3-Benzoyl-4-cyano-7-hydroxycoumarin]
- inhibition at 2 µM (phosphorylated MEK1): 31.9%
- inhibition at 20 µM (phosphorylated MEK1): 30%
